# Laboratory results as given in patent US20260347373A1, “HETEROCYCLIC COMPOUNDS, COMPOSITIONS THEREOF, AND METHODS OF TREATMENT THEREWITH” (BeOne Medicines I GmbH, priority 2023, published 2026).
# Like-named read-outs stand apart in the source and are kept apart here.
# How the values were obtained:
# WT KRAS = WT KRAS (Homo sapiens, UniProt P01116); test: KRAS WT Probe Displacement Assay (TR-FRET, GDP-loaded); format: binding
# Text: (§1) The synthetic routes of probe 1 and 2, which have been disclosed in PCT/CN2022/070676, are hereby incorporated herein.
# KRAS G12D = KRAS G12D (Homo sapiens, UniProt P01116, G12D); test: KRAS G12D Probe Displacement Assay (TR-FRET, GDP-loaded); format: binding
# KRAS G12D, sequence (P01116 1-188 isoform P01116-2 G12D): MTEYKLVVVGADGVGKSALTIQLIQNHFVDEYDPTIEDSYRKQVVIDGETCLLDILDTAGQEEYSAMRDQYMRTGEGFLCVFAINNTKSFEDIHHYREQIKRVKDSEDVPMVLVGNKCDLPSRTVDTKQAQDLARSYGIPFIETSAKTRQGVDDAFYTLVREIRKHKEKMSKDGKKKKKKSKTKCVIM
# Text: as §1
# [1] = KRAS WT, read-out: KRAS^WT Probe Displacement Assay IC50
# [2] = KRAS G12D, read-out: KRAS^G12D Probe Displacement Assay IC50
# WT KRAS, sequence (P01116 1-188 isoform P01116-2): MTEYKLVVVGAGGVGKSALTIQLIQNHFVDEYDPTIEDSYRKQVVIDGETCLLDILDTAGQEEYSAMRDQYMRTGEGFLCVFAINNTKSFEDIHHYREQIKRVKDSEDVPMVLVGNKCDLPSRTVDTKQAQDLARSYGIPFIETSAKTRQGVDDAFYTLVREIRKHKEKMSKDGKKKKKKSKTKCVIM
SMILES,IC50 (WT KRAS; [1]),IC50 (KRAS G12D; [2]),"IC50 (WT KRAS; KRAS^WT Probe Displacement Assay IC50, KRAS WT)","IC50 (KRAS G12D; KRAS^G12D Probe Displacement Assay IC50, KRAS G12D)"
"[2H]C([2H])([2H])N1C[C@H](OC)C[C@H]1[C@H](C)Oc1nc2c3c(nc(-c4cc(N)cc(C)c4C(F)(F)F)c(F)c3n1)OCC[C@@H]1[C@@H]3CC[C@H](CN21)N3 [Example 219, 3-((6aR,7S,10R)-1-fluoro-13-((S)-1-((2S,4R)-4-methoxy-1-(methyl-d3)pyrrolidin-2-yl)ethoxy)-5,6,6a,7,8,9,10,11-octahydro-4-oxa-3,11a,12,14,15-pentaaza-7,10-methanocyclohepta[4,5]cycloocta[1,2,3-de]naphthalen-2-yl)-5-methyl-4-(trifluoromethyl)aniline]",3 to 1000 nM,< 0.3 nM,,
"COC1CN(CC2(COc3nc4c5c(nc(-c6cc(N)cc(C)c6C(F)(F)F)c(F)c5n3)OCC[C@@H]3[C@@H]5CC[C@H](CN43)N5)CC2)C1 [Example 83, 3-((6aR,7S,10R)-1-fluoro-13-((1-((3-methoxyazetidin-1-yl)methyl)cyclopropyl)methoxy)-5,6,6a,7,8,9,10,11-octahydro-4-oxa-3,11a,12,14,15-pentaaza-7,10-methanocyclohepta [4,5]cycloocta [1,2,3-de]naphthalen-2-yl)-5-methyl-4-(trifluoromethyl)aniline]",3 to 1000 nM,< 0.3 nM,,
"Cc1cc(N)cc(-c2nc3c4c(nc(OC[C@]5(O)COC[C@H]5N(C)C)nc4c2F)N2C[C@H]4CC[C@H](N4)[C@H]2CCO3)c1C(F)(F)F [Example 131, (3R,4R)-3-((((6aR,7S,10R)-2-(5-amino-3-methyl-2-(trifluoromethyl)phenyl)-1-fluoro-5,6,6a,7,8,9,10,11-octahydro-4-oxa-3,11a,12,14,15-pentaaza-7,10-methanocyclohepta[4,5]cycloocta [1,2,3-de]naphthalen-13-yl)oxy)methyl)-4-(dimethylamino)tetrahydrofuran-3-ol]",3 to 1000 nM,0.3 to 3 nM,,
"Cc1cc(N)cc(-c2nc3c4c(nc(O[C@@H](C)[C@@H]5CC6(CN5C)CC6(F)F)nc4c2F)N2C[C@H]4CC[C@H](N4)[C@H]2CCO3)c1C(F)(F)F (single isomer, unassigned) [Example 224]",3 to 1000 nM,< 0.3 nM,,
"Cc1cc(N)cc(-c2nc3c4c(nc(OCC5(CN6CCC7(C6)CC7(F)F)CC5)nc4c2F)N2C[C@H]4CC[C@H](N4)[C@H]2CCO3)c1C(F)(F)F (single isomer, unassigned) [Example 138]",0.3 to 3 nM,< 0.3 nM,,
"CN(C)C1(C)CN(c2nc3c4c(nc(-c5cc(N)cc(Cl)c5C(F)(F)F)c(F)c4n2)OCC[C@@H]2[C@@H]4CC[C@H](CN32)N4)C1 [Example 31, 1-((6aR,7S,10R)-2-(5-amino-3-chloro-2-(trifluoromethyl)phenyl)-1-fluoro-5,6,6a,7,8,9,10,11-octahydro-4-oxa-3,11a,12,14,15-pentaaza-7,10-methanocyclohepta[4,5]cycloocta [1,2,3-de]naphthalen-13-yl)-N,N,3-trimethylazetidin-3-amine]",3 to 1000 nM,0.3 to 3 nM,,
"Cc1cc(N)cc(-c2nc3c4c(nc(OCC5(CN6CC[C@@H](F)C6)CC5)nc4c2F)N2C[C@H]4CC[C@H](N4)[C@H]2CCO3)c1C(F)(F)F [Example 86, 3-((6aR,7S,10R)-1-fluoro-13-((1-(((R)-3-fluoropyrrolidin-1-yl)methyl)cyclopropyl)methoxy)-5,6,6a,7,8,9,10,11-octahydro-4-oxa-3,11a,12,14,15-pentaaza-7,10-methanocyclohepta [4,5]cycloocta [1,2,3-de]naphthalen-2-yl)-5-methyl-4-(trifluoromethyl) aniline]",,,3 to 1000 nM,< 0.3 nM
"Cc1cc(N)cc(-c2nc3c4c(nc(OCC5(CN6CCC(C)(O)C6)CC5)nc4c2F)N2C[C@H]4CC[C@H](N4)[C@H]2CCO3)c1C(F)(F)F (stereo partly drawn) [Example 93, 1-((1-((((6aR,7S, 10R)-2-(5-amino-3-methyl-2-(trifluoromethyl)phenyl)-1-fluoro-5,6,6a,7,8,9,10,11-octahydro-4-oxa-3,11a,12,14,15-pentaaza-7,10-methanocyclohepta [4,5]cycloocta[1,2,3-de]naphthalen-13-yl)oxy)methyl)cyclopropyl)methyl)-3-methylpyrrolidin-3-ol]",3 to 1000 nM,< 0.3 nM,,
"Cc1cc(N)cc(-c2nc3c4c(nc(OC[C@@H]5OC[C@H]5N(C)C)nc4c2F)N2C[C@H]4CC[C@H](N4)[C@H]2CCO3)c1C(F)(F)F [Example 130, (2R,3R)-2-((((6aR,7S,10R)-2-(5-amino-3-methyl-2-(trifluoromethyl)phenyl)-1-fluoro-5,6,6a,7,8,9,10,11-octahydro-4-oxa-3,11a,12,14,15-pentaaza-7,10-methanocyclohepta[4,5]cycloocta [1,2,3-de]naphthalen-13-yl)oxy)methyl)-N,N-dimethyloxetan-3-amine]",3 to 1000 nM,0.3 to 3 nM,,
"Cc1cc(N)cc(-c2nc3c4c(nc(OCC5(C)COCC5N(C)C)nc4c2F)N2C[C@H]4CC[C@H](N4)[C@H]2CCO3)c1C(F)(F)F (single isomer, unassigned) [Example 42]",3 to 1000 nM,0.3 to 3 nM,,
"Cc1cc(N)cc(-c2nc3c4c(nc(OCC5(CN6C[C@@H]7C[C@@H]7[C@H]6CO)CC5)nc4c2F)N2C[C@H]4CC[C@H](N4)[C@H]2CCO3)c1C(F)(F)F [Example 97, ((1S,2S,5R)-3-((1-((((6aR,7S,10R)-2-(5-amino-3-methyl-2-(trifluoromethyl)phenyl)-1-fluoro-5,6,6a,7,8,9,10,11-octahydro-4-oxa-3,11a,12,14,15-pentaaza-7,10-methanocyclohepta [4,5]cycloocta,[1,2,3-de]naphthalen-13-yl)oxy)methyl)cyclopropyl)methyl)-3-azabicyclo [3.1.0]hexan-2-yl) methanol]",3 to 1000 nM,< 0.3 nM,,
"Nc1cc(Cl)c(C(F)(F)F)c(-c2nc3c4c(nc(OC[C@@]56C[C@@H](F)CN5CC5(CC5)C6)nc4c2F)N2C[C@H]4CC[C@H](N4)[C@H]2CCO3)c1 [Example 207, 3-chloro-5-((6aR,7S,10R)-1-fluoro-13-(((6′R,7a′R)-6′-fluorodihydro-1′H,3′H-spiro[cyclopropane-1,2′-pyrrolizin]-7a′(5′H)-yl)methoxy)-5,6,6a,7,8,9,10,11-octahydro-4-oxa-3,11a,12,14,15-pentaaza[7,10]methanocyclohepta[4,5]cycloocta[1,2,3-de]naphthalen-2-yl)-4-(trifluoromethyl)aniline]",0.3 to 3 nM,< 0.3 nM,,
"Cc1cc(N)cc(-c2nc3c4c(nc(OCC5(CN6CCOC[C@@H]6C)CC5)nc4c2F)N2C[C@H]4CC[C@H](N4)[C@H]2CCO3)c1C(F)(F)F [Example 164, 3-((6aR,7S,10R)-1-fluoro-13-((1-(((S)-3-methylmorpholino)methyl)cyclopropyl)methoxy)-5,6,6a,7,8,9,10,11-octahydro-4-oxa-3,11a,12,14,15-pentaaza-7,10-methanocyclohepta[4,5]cycloocta[1,2,3-de]naphthalen-2-yl)-5-methyl-4-(trifluoromethyl)aniline]",3 to 1000 nM,< 0.3 nM,,
"Cc1cc(N)cc(-c2nc3c4c(nc(OCC5(C)CN(CC6CC6)CC/C5=C\F)nc4c2F)N2C[C@H]4CC[C@H](N4)[C@H]2CCO3)c1C(F)(F)F (single isomer, unassigned) [Example 238]",3 to 1000 nM,< 0.3 nM,,
"Cc1cc(N)cc(-c2nc3c4c(nc(OCC56CCCN5CC(F)(F)C6)nc4c2F)N2C[C@H]4CC[C@H](N4)[C@H]2CCO3)c1C(F)(F)F (stereo partly drawn) [Example 1, 3-((6aR,7S,10R)-13-((2,2-difluorotetrahydro-1H-pyrrolizin-7a(5H)-yl)methoxy)-1-fluoro-5,6,6a,7,8,9,10,11-octahydro-4-oxa-3,11a,12,14,15-pentaaza-7,10-methanocyclohepta[4,5]cycloocta[1,2,3-de]naphthalen-2-yl)-5-methyl-4-(trifluoromethyl)aniline]",3 to 1000 nM,0.3 to 3 nM,,
"C=C1CN2C[C@H](F)C[C@@]2(COc2nc3c4c(nc(-c5cc(N)cc(Cl)c5C(F)(F)F)c(F)c4n2)OCC[C@@H]2[C@@H]4CC[C@H](CN32)N4)C1 [Example 209, 3-chloro-5-((6aR,7S,10R)-1-fluoro-13-(((2R,7aR)-2-fluoro-6-methylenetetrahydro-1H-pyrrolizin-7a(5H)-yl)methoxy)-5,6,6a,7,8,9,10,11-octahydro-4-oxa-3,11a,12,14,15-pentaaza-7,10-methanocyclohepta[4,5]cycloocta[1,2,3-de]naphthalene-2-yl)-4-(trifluoromethyl)aniline]",3 to 1000 nM,< 0.3 nM,,
"Cc1nc(N)cc(-c2nc3c4c(nc(OCC5(CN6CCC(=C(F)F)C6)CC5)nc4c2F)N2C[C@H]4CC[C@H](N4)[C@H]2CCO3)c1C(F)(F)F [Example 150, 4-((6aR,7S,10R)-13-((1-((3-(difluoromethylene)pyrrolidin-1-yl)methyl)cyclopropyl)methoxy)-1-fluoro-5,6,6a,7,8,9,10,11-octahydro-4-oxa-3,11a,12,14,15-pentaaza-7,10-methano-cyclohepta[4,5]cycloocta [1,2,3-de]naphthalen-2-yl)-6-methyl-5-(trifluoromethyl)pyridin-2-amine]",3 to 1000 nM,< 0.3 nM,,
"CO[C@@H]1CCN(CC2(COc3nc4c5c(nc(-c6cc(N)cc(C)c6C(F)(F)F)c(F)c5n3)OCC[C@@H]3[C@@H]5CC[C@H](CN43)N5)CC2)C[C@@H]1F [Example 184, 3-((6aR,7S,10R)-1-fluoro-13-((1-(((3S,4R)-3-fluoro-4-methoxypiperidin-1-yl)methyl)cyclopropyl)methoxy)-5,6,6a,7,8,9,10,11-octahydro-4-oxa-3,11a,12,14,15-pentaaza-7,10-methanocyclohepta[4,5]cycloocta[1,2,3-de]naphthalen-2-yl)-5-methyl-4-(trifluoromethyl)aniline]",3 to 1000 nM,< 0.3 nM,,
